Six substances from US20260232759A1, “PEPTIDES THAT INHIBIT INFECTION BY SARS-COV-2, THE VIRUS THAT CAUSES COVID-19 DISEASE” (Wisconsin Alumni Research Foundation, priority 2021, published 2026) can be followed below.

Starred links: 1 amine or outer side, 2 acyl side, 3 side chain; linkers in the order of their positions; H or OH if unused. Non-standard residues stand in square brackets, D forms with d. *: point of attachment. X2 = CC(C)CCC[C@@H](C)[C@H]1CC[C@H]2[C@@H]3CC=C4C[C@@H](OC(=O)CCOCCOCCOCCOCCNC(=O)C*)CC[C@]4(C)[C@H]3CC[C@]12C; X1 = O=C([C@H]1CNC[C@@H]1N[*:1])[*:2]; β3hE = N[C@@H](CCC(=O)O)CC(=O)O; β3hQ = NC(=O)CC[C@H](N)CC(=O)O; β3hD = NC(CC(=O)O)CC(=O)O; βAla = NCCC(=O)O

This assay deals with T1, SARS-CoV-2 S (Severe acute respiratory syndrome coronavirus 2, UniProt P0DTC2).
T1 construct: expressed in transfected cells
Nature of the assay: β-Gal complementation-based cell-cell fusion assay (S-protein-mediated fusion). As to conditions: for IC90: read-out: 90% inhibitory concentration (IC90), inhibition of S-mediated fusion.

Setting [1] is: 50% inhibitory concentration (IC50), inhibition of S-mediated fusion.
[2] abbreviates: IC50, inhibition of S-mediated fusion.

For “Ac-[β3hD]IS[β3hQ]INASVVNIEYEIKKLEEVA[X1]KLEESLI[β3hD]L[β3hQ]ELGSGSGC(X2)-NH2 [α/β-SARS2 HRC QE-6]”, the IC90 was around 100 nM. The same substance showed an IC50 under setting [1] of around 20 nM.
The substance “Ac-[β3hD]IS[β3hQ]INASVVNIEYEI[X1]KLEEVAKKLEESLI[β3hD]L[β3hQ]ELGSGSGC(X2)-NH2 [α/β-SARS2 HRC QE-5]” gave an IC50 under setting [1] of around 1000 nM.
Turning to “Ac-[β3hD]IS[β3hQ]INASVVNIEYEI[X1]KLEEVA[X1]KLEESLI[β3hD]L[β3hQ]ELGSGSGC(X2)-NH2 [α/β-SARS2 HRC QE-7]”, the IC90 was around 100 nM. The substance also came in with an IC50 under setting [1] of around 20 nM. This substance yielded an IC50 under setting [2] of around 10 nM.
“Ac-[β3hD]IS[β3hQ]INASVVNIEYEI[X1]KLEEVA[X1]KLEESLI[β3hD]L[β3hQ]EL[βAla]SGS[βAla]C(X2)-NH2 [α/β-SARS2 HRC QE-17]” yielded an IC50 under setting [2] of around 10 nM.
Under setting [1], “Ac-[β3hD]IS[β3hQ]INASVVNIEYEI[X1]KLEEVA[X1]KLE[β3hE]SLI[β3hD]L[β3hQ]ELGSGSGC(X2)-NH2 [α/β-SARS2 HRC QE-8]” returned a half-inhibitory concentration (IC50) of around 100 nM.
Under setting [2], “Ac-[β3hD]IS[β3hQ]INASVVNI[β3hE]YEI[X1]KLEEVA[X1]KLEESLI[β3hD]L[β3hQ]EL[βAla]SGS[βAla]C(X2)-NH2 [α/β-SARS2 HRC QE-15]” returned an IC50 of around 50 nM.
